According to US7691624B2, “Cancer cell detecting devices” (Academia Sinica, priority 2003, dated 2010):

How the values were obtained:
[1] = Fluorescence analysis in aqueous solution; type: physicochemical; settings: λex≈430 nm, no DNA
Description: Compound 2 was mixed with eleven DNAs and subjected to fluorescence analysis at λex≈430 nm, using a Hitachi F4010 spectrofluorimeter with a 2 nm bandwidth in a 1-cm cell. Fluorescence analysis was also carried out for compound 4 in the presence of Hum24. […] Further, the fluorescence peaks for a complex of compound 2 and a DNA duplex and a complex of compound 2 and a DNA quadruplex were at ˜550 nm and ˜575 nm, respectively.

Hum24 quadruplex = experiment: Temperature-dependent CD analysis; type: binding, human
Description: Eight DNA quadruplexes and their complexes with compound 2 were subjected to CD analysis. CD spectra were averaged 10 scans on a Jasco J-715 spectropolarimeter with a 2 nm bandwidth. The scan speed was 50 nm/min and the step resolution was 0.2 nm.
Further, Hum24 and its complexes with compounds 2, 4, 6, and 8 were subjected to temperature-dependent CD analysis.

[2] = test system: tested cancer cells (CL1-1, H1299, hTERT-BJ, Ca9-22, HeLa, KJ-1); experiment: Cancer cell diagnosis by wide-field fluorescence microscopy; type: cell-based, human; settings: each type of tested cancer cells; 0.1 μM, 3-6 hours
Description: A wide-field fluorescence microscopy was custom made for diagnosing cancer cells. The microscopy consists of an Ar^+ laser (Coherent Inc. Santa Clara, Calif.) as the light source, a sensitive cooled charged-coupled device (CCD) camera (DV465-UV, Andor Technology, South Windsor, Conn.) for imaging, and two avalanche photodiodes (APDs) for transient photoluminescence measurement. Excitation and imaging were conducted by an oil immersion microscope objective with a numerical aperture of 1.3. A dichroism mirror (Omega) was used to direct the fluorescence into the CCD camera. A holographic notch filter (Oriel) was used to block the backscattered laser light. Images of 250×250 pixels were recorded at a high speed. The imaged area was 50×50 μm^2 and the spatial resolution was about 2 pixels.
The following cells were tested: CL1-1 human lung cancer cells, H1299 lung cancer cells, hTERT-BJ lung cancer cells, Ca9-22 oral cancer cells, HeLa cervical cancer cells, KJ-1 nasopharyngeal cancer cells, HaCaT keratinocyte cells, Detroit-551 skin normal cells, IMR-90 lung normal cells, and BJ-1 lung fibroblast cells. Specifically, cells were incubated with 0.1 μM of compound 2 in a culture medium for 3-6 hours. The non-fixed cells were washed three times with phosphate-buffered saline and then studied under the wide-field fluorescence microscope.

HeLa cancer cells = experiment: Fluorescence of stained cells in eppendorf under LED, recorded by camera; type: cell-based; settings: Cancer cells (H) HeLa
Description: (§1) Human lung CL1-0 cancer cells or MRC-5 normal cells were incubated with 0.5 μM of Compound 2 and acridine orange (AO). After incubation in standard culture medium for 1 hour, the non-fixed cells were removed by washing the culture three times with phosphate buffered saline (PBS). The fixed cells were collected in an eppendorf by trypsinization. The eppendorf was centrifuged and then illuminated by an light emitting diode (LED) emitting excitation light with a center wavelength at 470 nm. A conventional digital camera was used to record the fluorescence. Table 1 summarizes the numbers of cells required to distinguish cancer cells from normal cells based on fluorescence emission of Compound 2 and AO recorded by a camera under different experimental conditions. Specifically, Compound 2 and AO were incubated with four different cells in eppendorf, i.e., MRC-5 normal cells, primary fibroblast, CL1-0 cancer cells, and HeLa cancer cells.

primary fibroblast = experiment: as above; type: cell-based; settings: Normal cells (F) primary fibroblast
Description: as §1

C[n+]1ccc(C=Cc2ccc3[nH]c4ccc(C=Cc5cc[n+](C)cc5)cc4c3c2)cc1.[I-].[I-] [Compound 2, 3,6-bis-(2-(1-methylpyridinium-4-yl)-vinyl)-9H-carbazole diiodide]
fluorescence in an aqueous solution [1]: weak | melting temperature of Hum24 quadruplex in the presence of compound (Hum24 quadruplex): increased | percentage of cells exhibiting bright fluorescence in the nucleus [2]: more than 70% | Numbers of cells required to distinguish cancer cells and normal cells (HeLa cancer cells; 0.05 μM/1 hr): 2,000 (H) | Numbers of cells required to distinguish cancer cells and normal cells (HeLa cancer cells; 0.1 μM/1 hr): 2,000 (H) | Numbers of cells required to distinguish cancer cells and normal cells (primary fibroblast; 0.05 μM/1 hr): 20,000 (F) | Numbers of cells required to distinguish cancer cells and normal cells (primary fibroblast; 0.1 μM/1 hr): 12,500 (F)
